Laboratory results as given in patent US20050107440A1, “Rosiglitazone edisylates and their use as antidiabetics” (priority 2001, published 2005).

How the values were obtained:
Assay type in all cases: physicochemical
[1] = Solubility of the Ethanedisulfonate Form II in water (visual, confirmed by HPLC assay of a saturated solution); conditions: water added in aliquots 1 to 1000 ml to approx. 100 mg, product of Example 7
Source text: The visual solubility was confirmed by an HPLC assay of a saturated solution.

[2] = Solid state stability of the drug substance (storage 1 month, HPLC assay); conditions: product of Example 7
Description: The solid state stability of the drug substance was determined by storing approximately 1.0 g of the material in a glass bottle at a) 40° C./75% Relative Humidity (RH), open exposure, for 1 month and b) at 50° C., closed, for 1 month. […] Solubility of the Ethanedisulfonate Form II

[3] = Solubility of the Ethanedisulfonate Form I in water (visual, aliquot addition); conditions: water added in aliquots 0.25 to 1 ml to approx. 30 mg; product of Example 2

| Solubility [1] [µg/mL] | Solid state stability: HPLC assay (final content) ([2]; 40° C./75% RH, open exposure) [% initial] | Solid state stability: degradation ([2]; 40° C./75% RH, open exposure) | Solid state stability: HPLC assay (final content) ([2]; 50° C., closed) [% initial] | Solid state stability: degradation ([2]; 50° C., closed) | Solubility [3] [µg/mL] | Compound |
| --- | --- | --- | --- | --- | --- | --- |
| 4700 | 98 | No significant degradation observed | 99 | No significant degradation observed | – | CN(CCOc1ccc(CC2SC(=O)NC2=O)cc1)c1ccccn1.O=S(=O)(O)CCS(=O)(=O)O (stereo not drawn) [Ethanedisulfonate Form II, 5-[4-[2-(N-methyl-N-(2-pyridyl)amino)ethoxy]benzyl]thiazolidine-2,4-dione 1,2-ethanedisulfonate Form II] |
| – | – | – | – | – | 4700 | CN(CCOc1ccc(CC2SC(=O)NC2=O)cc1)c1ccccn1.O=S(=O)(O)CCS(=O)(=O)O (stereo not drawn) [Ethanedisulfonate Form I, 5-[4-[2-(N-methyl-N-(2-pyridyl)amino)ethoxy]benzyl]thiazolidine-2,4-dione 1,2-ethanedisulfonate Form I] |
